We go through one molecule from US20160199434A1, “COMPOSITIONS AND METHODS FOR MODULATING DNA METHYLATION” (OHIO STATE INNOVATION FOUNDATION, priority 2013, published 2016).

Entries after “also recorded” stand apart in the source; their conditions may differ.

One assay concerns DSP promoter. As to the kind of experiment: Percent CpG methylation of DSP promoter in HeLa cells. The class given is cell-based, human. Particulars: 5 or 25 μM, compared to DMSO and PBA (FIG. 6B). The method, then: HeLa cervical cancer cells were left untreated, were treated with DMSO, were treated with 5-AZA, were treated with AKB-6899 (5 or 25 μM), or were treated with PBA (2 mM).

The subject of a further assay is RASSF1 promoter. As to the kind of experiment: CpG methylation of RASSF1 promoter in lungs of normal mice. It counts as in vivo, mouse. The note with it: i.p., three weeks (FIG. 14B). Here is the method:
(§1) FIGS. 14A-14C show the effects of systemic administration of AKB-6899. Mice were treated three times per week for three weeks with either i.p. AKB-6899 or i.p. DMSO. The lungs were removed and assayed to determine DNMT mRNA expression, percent CpG methylation, and fold change in mRNA. […] The data was standardized to 1.0 by the DMSO levels of the respective gene expression, (n=4 lungs per condition).

Another assay concerns DNMT-3b. As to the kind of experiment: DNMT-3b mRNA expression in lungs of normal mice after systemic administration. It counts as in vivo, mouse. The note with it: i.p. 17.5 mg/kg three times per week for three weeks, vs DMSO. Here is the method:
as §1

Assay [1] deals with desmoplakin (DSP) gene promoter. As to the kind of experiment: Methylation of DSP promoter in MCF-7 breast cancer cells. The class given is cell-based, human. Here is the method:
(§2) FIGS. 3A-3E show the effect of AKB-6899 (25 μM) on methylation of the desmoplakin (DSP) gene promoter in PyMT breast cancer cells (3A), human MDA-MB-231 triple negative breast cancer cells (3B), human C8161.9 melanoma cells (3C), and human MCF-7 breast cancer cells (3D). In FIG. 3A, the DSP promoter was 100% unmethylated (AKB-6899) vs. 99.99% methylated (vehicle). In FIG. 3B, the DSP promoter was 99.62% unmethylated (AKB-6899) v. 99.89% (vehicle). In FIG. 3C, the DSP promoter was 99.90% unmethylated (AKB-6899) v. 42.04% (vehicle). In FIG. 3D, the DSP promoter was 92.48% unmethylated (AKB-6899) v. 98.48% (vehicle). In FIG. 3E, when compared to the vehicle (DMSO), treatment of PyMT cells with AKB-6899 increased DSP expression.
(§3) The gene expression signatures from the tumors of PyMT breast tumor-bearing mice that were treated with either vehicle or AKB-6899 were evaluated. […] Methylation-specific PCR on the desmoplakin promoter was performed. The level of hypomethylation was near complete.

The subject of the next assay is DNMT-1. As to the kind of experiment: DNMT-1 transcription in H1703 lung cancer cells. The class given is cell-based, human. The note with it: H1703 cells in vitro, dose-dependent (FIG. 10A). From the text:
In FIG. 10A, AKB-6899 inhibited DNMT-1, DNMT-3a, and DNMT-3b transcription in a dose-dependent manner in human squamous cell carcinoma lung cancer cells (H1703), in vitro. The DMSO-treated DNMT mRNAs are over 1.0, meaning the level of expression is higher than the housekeeping control gene, CAP1. In FIG. 10B, AKB-6899 inhibited DNMT-3a and DNMT-3b transcription in human adenocarcinoma lung cancer cells (A549). The DMSO-treated DNMT mRNAs are under 1.0, meaning the level of expression is lower than the housekeeping control gene, CAP1.

The next assay has as its system A549 adenocarcinoma. As to the kind of experiment: XTT cell survival assay, A549 lung cancer cells. The class given is cell-based, human. The note with it: A549, increasing doses (FIG. 13B). From the text: (§4) FIGS. 13A-13B show XTT cell survival assays for normal lung epithelial cells (BEAS-2B) and lung cancer cells (H1703 squamous cell carcinoma and A549 adenocarcinoma) in response to increasing doses of AKB-6899.

For a further assay, the system named is DSP mRNA. As to the kind of experiment: DSP mRNA expression in lungs of normal mice. It counts as in vivo, mouse. Particulars: i.p., three weeks (FIG. 14C). Here is the method: as §1
The test system of assay [2] is H1703 squamous cell carcinoma. As to the kind of experiment: XTT cell survival assay, H1703 lung cancer cells. The class given is cell-based, human. The note with it: H1703, increasing doses (FIG. 13B).
From the text: as §4

Assay [3] relates to desmoplakin (DSP) gene promoter. As to the kind of experiment: Methylation of DSP promoter in C8161.9 melanoma cells. The class given is cell-based, human. The method, then: as §2, §3
A further assay concerns DNMT-3a. As to the kind of experiment: DNMT-3a mRNA expression by RT-PCR in MDA-MB-231 tumor cells. It counts as cell-based, human. Particulars: 25 μM, 24 hours, compared to DMSO (FIG. 1B). Here is the method: FIGS. 1A-1E show DNA methyltransferase mRNA expression in vitro and in vivo. […] PyMT tumor cells were left untreated, were treated with DMSO, or were treated with AKB-6899 (10, 25, or 50 μM) for 24 hours. The cells were subjected to Trizol extraction to recover total RNA. cDNA was synthesized for RT-PCR of DNMT-1 and DNMT-3a mRNA expression. […] Human MDA-MB-231 tumor cells were left untreated, were treated with DMSO, or were treated with AKB-6899 (25 μM) for 24 hours. Total RNA was isolated for RT-PCR. FIG. 1C (DNMT-1), FIG. 1D (DNMT-3a), and FIG. 1E (DNMT-3b) compare the effect of AKB-6899 with the effect of 5-aza-2′deoxycytidine (5-AZA) as assessed by RT-PCR in human cervical tumors implanted in mice that were either untreated (UTX), treated with DMSO, treated with 5-AZA, or treated with AKB-6899 (17.5 mg/kg).
To determine whether the decrease in DNMT expression and the increase in DSP expression were relevant in human cancer, the level of desmoplakin expression in MDA-MB-231 human triple negative breast cancer cells was determined. […] (FIG. 3B).

A further assay concerns desmoplakin protein. As to the kind of experiment: Desmoplakin protein expression in cultured PyMT tumor cells. The note with it: 10 μM, 24 hours (FIG. 5A). The class given is cell-based, mouse. Here is the method: FIGS. 5A-5B show desmoplakin protein expression following AKB-6899 treatment. In FIG. 5A, cultured PyMT tumor cells were treated for 24 hours with DMSO or AKB-6899 (10 μM). AKB-6899 increased desmoplakin protein expression.
as §3

Another assay deals with desmoplakin mRNA. As to the kind of experiment: Desmoplakin mRNA expression in cultured PyMT cells. The class given is cell-based, mouse. The method, then: as §2
FIGS. 4A-4B show desmoplakin mRNA expression in vitro and in vivo.

As for `O=C(O)CNC(=O)c1ncc(-c2cccc(F)c2)cc1O` [AKB-6899, {[5-(3-Fluorophenyl)-3-hydroxypyridine-2-carbonyl]amino}acetic acid], in the assay on DSP promoter, the “demethylation of DSP promoter (percent CpG methylation)” value was “increase in demethylation”. Moreover, in the assay on RASSF1 promoter, the “methylation of RASSF1 promoter in lungs” value is reported as “demethylated”. In addition, in the assay on DNMT-3b, the “DNMT-3b expression in lungs” value is listed as “inhibited”. For the same molecule, the “level of hypomethylation of desmoplakin promoter (in words)” value in [1] and in [3] (C8161.9 melanoma tumor cells) was “near complete” in each case. In addition, the DSP promoter unmethylated amounted to 92.48% in [1] (25 μM (FIG. 3D)) and 99.90% in [3] (C8161.9 melanoma cells, 25 μM (FIG. 3C)). In addition, in the assay with DNMT-1, the DNMT-1 transcription entry was “inhibited”. Further, the “cell survival / toxicity” value (in the assay on A549 adenocarcinoma; in [2]) was “pronounced toxicity” each time. The “DSP mRNA expression in lungs” value in the assay with DSP mRNA is “increased”. In the assay on DNMT-3a, the “DNMT-3a mRNA expression” value is given as “significantly decreased; also recorded: downregulated”. Moreover, the desmoplakin protein expression result in the assay on desmoplakin protein is “upregulation; also recorded: increased”. Besides, the DSP expression entry with desmoplakin mRNA (PyMT cells, compared to vehicle (DMSO) (FIG. 3E)) is listed as “increased”. Further, in the assay with desmoplakin mRNA (cultured PyMT cells, 10 μM, compared to DMSO (FIG. 4A)), the “desmoplakin mRNA expression” value is listed as “significantly increases”.
